Legend:
Artemia salina = Artemia salina bioassay (brine shrimp lethality bioassay)
Protocol: This test was carried out with a slight modification, as described by Amaral et al.. Briefly, shrimp cysts were incubated in a small aquarium containing a brine solution (50 mg of cysts and 300 mL of brine) for 48 h with direct lighting. […] […] In the negative (NC) and positive (PC) control groups, saline solution and potassium dichromate (K2Cr2O7) were added, respectively. The concentration range used in the case of the PC group was 31.25 to 500 μg/mL.

[1] = Hemolytic activity in mice erythrocytes; assay type: cell-based, Mus musculus; details: male, Swiss albino, mouse, mouse erythrocyte suspension, 37°C, 2 h
Protocol: (§1) This test was performed on adult Swiss albino mouse (Mus musculus) erythrocytes. The mouse was collected from the Central Animal House of the Federal University of Piaui, Brazil. It was allowed free access to standard food and water ad libitum and was kept under controlled lighting (12 h dark/light cycles) at 24 ± 2°C. Blood was collected from the retro-orbital plexus of the mouse (male, 24 gm body weight). Hemolytic activity in mouse erythrocytes was performed, according to Jamialahmadi et al..

mouse erythrocytes = experiment: Hemolytic activity in mice erythrocytes; assay type: cell-based
Protocol: as §1

[2] = system: S. cerevisiae EG103 (SODWT); experiment: S. cerevisiae central disc test, oxidative damage, strain SODWT; assay type: cell-based, Saccharomyces cerevisiae
Text: (§2) The central disc test was done according to the method presented by Islam et al.. Superoxide dismutase (CuZnSOD-Sod1) is a cytosolic enzyme that is faulty in strain EG118, whereas mitochondrial SOD is faulty in strain EG110 (MnSOD-Sod2). The strain EG133 has both Sod1 and Sod2 defects, while EG223 has a cytosolic catalase deficiency (Cat1). While EG103 is a competent strain that is identical to the wild-type (SODWT), EG is a dual isogenic strain for the Sod1 and Cat1 genes.

[3] = system: S. cerevisiae EG118 (Sod1∆); experiment: S. cerevisiae central disc test, oxidative damage, strain Sod1∆; assay type: cell-based, Saccharomyces cerevisiae
Text: as §2

[4] = system: S. cerevisiae EG110 (Sod2∆); experiment: S. cerevisiae central disc test, oxidative damage, strain Sod2∆; assay type: cell-based, Saccharomyces cerevisiae
Text: as §2

[5] = system: S. cerevisiae EG133 (Sod1∆Sod2∆); experiment: S. cerevisiae central disc test, oxidative damage, strain Sod1∆Sod2∆; assay type: cell-based, Saccharomyces cerevisiae
Text: as §2

[6] = system: S. cerevisiae EG223 (Cat1∆); experiment: S. cerevisiae central disc test, oxidative damage, strain Cat1∆; assay type: cell-based, Saccharomyces cerevisiae
Text: as §2

[7] = system: S. cerevisiae EG (Sod1∆Cat1∆); experiment: S. cerevisiae central disc test, oxidative damage, strain Sod1∆Cat1∆; assay type: cell-based, Saccharomyces cerevisiae
Text: as §2

[8] = system: S. cerevisiae strains (SODWT, Sod1Δ, Sod2Δ, Cat1Δ, Sod1/Sod2Δ, Cat1Δ/Sod1Δ); experiment: In vivo antioxidant (S. cerevisiae) test, all strains tested; assay type: cell-based, Saccharomyces cerevisiae
Text: as §2

## CC(C)=CCC/C(C)=C\CO [Nerol, cis-3,7-dimethyl-2,6-octadien-1]
Artemia salina; 62.5 μg/mL, 48 h of exposure
  Artemia Salina mortality: 100%
Artemia salina; 31.25–500 μg/mL
  cytotoxic effects in the A. Salina test: significant cytotoxic effects
[1]; pH 7.4, 31.25 μg/mL
  hemolysis at 2 h, 31.25 μg/mL: 2.67 ± 0.35%
[1]; pH 7.4, 62.5 μg/mL
  hemolysis at 2 h, 62.5 μg/mL: 4.49 ± 0.26%
[1]; pH 7.4, 125 μg/mL
  hemolysis at 2 h, 125 μg/mL: 5.12 ± 1.05%
[1]; pH 7.4, 250 μg/mL
  hemolysis at 2 h, 250 μg/mL: 6.54 ± 1.78%
[1]; pH 7.4, 500 μg/mL
  hemolysis at 2 h, 500 μg/mL: 39.1%
Mouse erythrocytes; 500 μg/mL, 37°C, 2 h
  Hemolysis (%): 34.95 ± 4.74^∗ %
Mouse erythrocytes; 31.25–500 μg/mL
  cytotoxic effects in the hemolysis test: significant cytotoxic effects
[2]; 0.9 μg/mL
  oxidative damage: 1.50 ± 0.70
[2]; 1.8 μg/mL
  oxidative damage: 1.50 ± 0.70
[2]; 7.2 μg/mL
  oxidative damage: 2.00 ± 1.41
[2]; 14.4 μg/mL
  oxidative damage: 2.50 ± 0.70
[2]; 32 μg/mL
  oxidative damage: 2.00 ± 1.41
[2]; 64 μg/mL
  oxidative damage: 2.00 ± 1.41
[2]; 128 μg/mL
  oxidative damage: 1.00 ± 0.28
[2]; 3.6 mg/mL
  oxidative damage: 1.00 ± 0.28
[2]; 256 mg/mL
  oxidative damage: 2.00 ± 0.24
[2]; 500 mg/mL
  oxidative damage: 1.00 ± 0.28
[3]; 0.9 μg/mL
  oxidative damage: 1.50 ± 0.70
[3]; 1.8 μg/mL
  oxidative damage: 2.00 ± 1.41
[3]; 7.2 μg/mL
  oxidative damage: 3.00 ± 1.41
[3]; 14.4 μg/mL
  oxidative damage: 2.50 ± 0.70
[3]; 32 μg/mL
  oxidative damage: 3.50 ± 0.70
[3]; 64 μg/mL
  oxidative damage: 1.50 ± 0.70
[3]; 128 μg/mL
  oxidative damage: 2.00 ± 1.41
[3]; 3.6 mg/mL
  oxidative damage: 2.50 ± 0.70
[3]; 256 mg/mL
  oxidative damage: 2.50 ± 0.70
[3]; 500 mg/mL
  oxidative damage: 2.00 ± 0.24
[4]; 0.9 μg/mL
  oxidative damage: 1.00 ± 0.28
[4]; 1.8 μg/mL
  oxidative damage: 3.00 ± 1.41
[4]; 7.2 μg/mL
  oxidative damage: 3.00 ± 1.41
[4]; 14.4 μg/mL
  oxidative damage: 3.00 ± 1.41
[4]; 32 μg/mL
  oxidative damage: 1.50 ± 0.70
[4]; 64 μg/mL
  oxidative damage: 2.50 ± 0.70
[4]; 128 μg/mL
  oxidative damage: 2.50 ± 0.70
[4]; 3.6 mg/mL
  oxidative damage: 2.50 ± 0.70
[4]; 256 mg/mL
  oxidative damage: 2.00 ± 1.41
[4]; 500 mg/mL
  oxidative damage: 2.00 ± 0.24
[5]; 0.9 μg/mL
  oxidative damage: 2.00 ± 1.41
[5]; 1.8 μg/mL
  oxidative damage: 2.50 ± 0.70
[5]; 7.2 μg/mL
  oxidative damage: 3.00 ± 1.41
[5]; 14.4 μg/mL
  oxidative damage: 3.00 ± 0.54
[5]; 32 μg/mL
  oxidative damage: 4.50 ± 0.70
[5]; 64 μg/mL
  oxidative damage: 2.50 ± 0.70
[5]; 128 μg/mL
  oxidative damage: 3.00 ± 1.41
[5]; 3.6 mg/mL
  oxidative damage: 2.50 ± 0.70
[5]; 256 mg/mL
  oxidative damage: 2.50 ± 0.70
[5]; 500 mg/mL
  oxidative damage: 2.50 ± 0.70
[6]; 0.9 μg/mL
  oxidative damage: 1.50 ± 0.70
[6]; 1.8 μg/mL
  oxidative damage: 2.50 ± 0.70
[6]; 7.2 μg/mL
  oxidative damage: 2.50 ± 0.70
[6]; 14.4 μg/mL
  oxidative damage: 3.00 ± 0.54
[6]; 32 μg/mL
  oxidative damage: 3.50 ± 0.70
[6]; 64 μg/mL
  oxidative damage: 3.00 ± 1.41
[6]; 128 μg/mL
  oxidative damage: 3.00 ± 1.41
[6]; 3.6 mg/mL
  oxidative damage: 4.00 ± 1.2
[6]; 256 mg/mL
  oxidative damage: 1.50 ± 0.70
[6]; 500 mg/mL
  oxidative damage: 2.50 ± 0.70
[7]; 0.9 μg/mL
  oxidative damage: 2.50 ± 2.10
[7]; 1.8 μg/mL
  oxidative damage: 2.50 ± 0.70
[7]; 7.2 μg/mL
  oxidative damage: 3.00 ± 1.41
[7]; 14.4 μg/mL
  oxidative damage: 3.00 ± 1.41
[7]; 32 μg/mL
  oxidative damage: 3.50 ± 0.70
[7]; 64 μg/mL
  oxidative damage: 3.00 ± 1.41
[7]; 128 μg/mL
  oxidative damage: 2.50 ± 0.70
[7]; 256 μg/mL
  oxidative damage: 3.00 ± 1.41
[7]; 3.6 mg/mL
  oxidative damage: 3.00 ± 1.41
[7]; 500 mg/mL
  oxidative damage: 2.50 ± 0.70
[8]; all strains and concentrations tested
  percentage modulation of oxidative damage caused by the stressor H2O2: more than 60%
[8]; any concentration, any of the tested S. cerevisiae strains
  induction of oxidative damage: did not induce oxidative damage

From PMC9712021 (Advances in Pharmacological and Pharmaceutical Sciences, 2022)
